Test results taken from patent US8367720B2 (Panorama Research Inc., priority 2007, dated 2013).
Where two headings read alike, the source gives them in different places.

Key:
L1210 cells = format: cell-based; conditions: 10 μM, after 12 h
Description: The cells were cultured in an incubator at 37° C., 5% CO2 and saturated humidity. The culture medium was removed, the cells were washed with PBS twice, fixed at −20° C. overnight. Then the cells were centrifuged again, washed with PBS to remove ethanol, cultured with RNase A (200 μg/mL, Sigma) at 37° C. for 1 h, stained with PI (50 μg/mL, Sigma) in dark for 30 min, and detected by using a flow cytometer.

[1] = system: secretion of pyocyanin by Pseudomonas aeruginosa; test: Measurement of pyocyanin; format: cell-based; conditions: 18 h culture, A520; Andro, AL-1 1 mM; Chuanhuning, Yanhuning, Lianbizhi 10 mM (FIG. 3)
Description: Pseudomonas aeruginosa was inoculated in LB medium, then cultured at a constant temperature of 37° C. in a shaker overnight. […] The supernatant was taken and extracted in turn with chloroform and 0.2 N HCl, and A520 values were measured (Zielinshi et al., Biol. Chem. 1991, 266, 9754-9763; May et al., Clin. Microbiology Rev. 1991, 4, 191-206).

[2] = system: rats with STZ-induced diabetes mellitus; test: Therapeutical effects on STZ-induced diabetes mellitus in rats
Description: 30 Female SD rats, 180-220 g, fasted for 16 h, were subjected to intraperitoneal injection of 60 mg/kg of STZ (purchased from Sigma Company). After 72 h, blood samples were collected from the rats by cutting their tails after fasting 16 h, and blood glucose values were measured by using a blood glucose analyzer (Johnson & Johnson Company). […] Animals were weighed, orbital bleeded, and the sera were separated. According to the instructions of kit (Zhejiang Dongou Biotechnology Co., Ltd.), the contents of triglyceride and total cholesterol were measured. […] The rats of vehicle group were treated with an equivalent volume of solvent (20% DMSO in H2O). After being fasted for 16 h, the rats were weighed, and bleeded for the measurement of blood glucose, triglyceride and total cholesterol. The obtained data were processed by using one-factor analysis of variance (One-way ANOVA) followed by Student's t-test.

[3] = system: Staphylococcus aureus wild type; test: Test of minimal inhibitory concentration (MIC); format: cell-based; conditions: two-fold dilution, 37° C., 24 h, absorbance 595 nm
[4] = system: extracellular protease of Pseudomonas aeruginosa; test: Measurement of extracellular protease; format: cell-based; conditions: azo-casein, A440; Andro, AL-1 1 mM; Chuanhuning, Yanhuning, Lianbizhi 10 mM (FIG. 4)
Description: Pseudomonas aeruginosa was inoculated in LB liquid, and cultured at a constant temperature of 37° C. in a shaker overnight. […] After the bacterial liquids were cultured simultaneously at 37° C. for 6 h and centrifuged, supernatant 100 μL was taken, azo-casein 5 mg was added, […] and CaCl2 10 mM were added, and then they were shaken for reaction at 37° C. for 6 h, and the reaction was terminated by adding EDTA-Na. The A440 values of the supernatants were measured (Zielinshi et al., Biol. Chem. 1991, 266, 9754-9763; May et al., Clin. Microbiology Rev. 1991, 4, 191-206).

Pseudomonas aeruginosa [5] = test: Measurement of growth curve of Pseudomonas aeruginosa; format: cell-based; conditions: 1 mM (FIG. 2)
Description: Pseudomonas aeruginosa was inoculated in LB medium, and cultured at a constant temperature of 37° C. in a shaker overnight.

MRSA5677 = test: Test of minimal inhibitory concentration (MIC); format: cell-based, Staphylococcus aureus; conditions: two-fold dilution, 37° C., 24 h, absorbance 595 nm
[6] = system: Staphylococcus aureus MRSA 5676; test: Inhibition zone test (holing method); format: cell-based; conditions: 37° C., 24 h; compounds 0.05 mg/well, vancomycin 0.15 mg/well
Description: (§1) After being cultured at 37° C. for 24 h, the sizes of inhibition zones were measured.

E. coli = test: Inhibition zone test (holing method); format: cell-based; conditions: 37° C., 24 h; compounds 0.05 mg/well, gentamicin 0.10 mg/well
Description: as §1

Pseudomonas aeruginosa [7] = test: Inhibition zone test (holing method); format: cell-based; conditions: 37° C., 24 h; compounds 0.05 mg/well, gentamicin 0.10 mg/well
Description: as §1

Bacillus subtilis = test: Inhibition zone test (holing method); format: cell-based; conditions: 37° C., 24 h; compounds 0.05 mg/well, streptomycin 0.15 mg/well
Description: as §1

Candida albicans = test: Inhibition zone test (holing method); format: cell-based; conditions: 37° C., 24 h; compounds 0.05 mg/well, nysfungin 0.10 mg/well
Description: as §1

[8] = system: Staphylococcus aureus wild type; test: Inhibition zone test (holing method); format: cell-based; conditions: 37° C., 24 h; compounds 0.05 mg/well, streptomycin 0.15 mg/well
Description: as §1

[9] = system: Staphylococcus aureus MRSA 5677; test: Inhibition zone test (holing method); format: cell-based; conditions: 37° C., 24 h; compounds 0.05 mg/well, vancomycin 0.15 mg/well
Description: as §1

Pseudomonas aeruginosa [10] = test: Atomic force microscope (AFM) experiment; format: cell-based; conditions: 1 mM, 15 h contact (FIG. 5)
Description: Pseudomonas aeruginosa was inoculated in LB liquid, shaken and cultured at a constant temperature of 37° C. overnight, and the bacterial liquid was centrifuged, washed with sterile physiological saline twice, and mixed with physiological saline to form a bacterial suspension having a turbidity of 0.5 McFarland Standard (bacterial number was about 5×10^8-9 CFU/mL). The bacterial suspension was diluted with physiological saline 50-times. […] After contacting with medicines for 15 h, 1 mL culture solution was added in a sterile centrifuge tube and centrifuged at 10,000×g for 5 min. The supernatant liquid was discarded, and the obtained bacterial sample was washed with double distilled water twice, and suspended in double distilled water. A small volume of Pseudomonas aeruginosa suspension was taken and dropped on a cover slip carefully. After water was dried under atmospheric condition, the bacteria were observed by CP-Research type atom force microscope (U.S.A., Thermomicroscopes Co.) ([…] et al., Antimicro. Chemother. 1994, 34, 679-685; […] et al., Antimicro. Agents Chemother. 2000, 44, 682-687; Nickel et al., Urology 1986, 135, 586-588).

[11] = system: BF of Pseudomonas aeruginosa; test: Scanning electron microscopy (SEM) experiment, biofilm (BF) formation; format: cell-based; conditions: 1 mM; early BF 3rd day, mature BF 7th day (FIG. 6, 7)
Description: Pseudomonas aeruginosa was inoculated in LB liquid, and cultured at a constant temperature of 37° C. in a shaker overnight, and the bacterial liquid was centrifuged, washed with sterile physiological saline twice, and mixed with physiological saline to form a bacterial suspension having a turbidity of 0.5 McFarland Standard (bacterial number was about 5×10^8-9 CFU/mL). The bacterial suspension was diluted with physiological saline 50-times. A biofilm (BF) carrier was placed in a tube containing 2 mL of the bacterial liquid, and the culturing was conducted at 37° C. […] Medium was replaced every other two days. The formation of BF was observed by using Quanta 400 thermal field emission scanning electron microscope (FEI Company). The carrier adhered with BF was washed with sterile physiological saline to remove floating bacteria, fixed with 2.5% glutaral, immersed in pH 7.4 PBS for three times, dewatered in turn with 50%, 70%, 80% and 90% ethanol once, then dewatered with 100% ethanol twice and with tert-butanol twice, 5 min for each time, and lyophilized for 5 h. The surface of carrier was plated with gold under vacuum.

[12] = system: suspended Pseudomonas aeruginosa; test: Experiment of combination with antibiotics; format: cell-based; conditions: Pseudomonas aeruginosa cultured 15 h, OD600; ciprofloxacin 0.017 μg/mL, erythromycin 3.75 μg/mL, Andro 350 μg/mL, AL-1 538 μg/mL (1 μmol/mL)
MRSA5676 = test: Test of minimal inhibitory concentration (MIC); format: cell-based, Staphylococcus aureus; conditions: two-fold dilution, 37° C., 24 h, absorbance 595 nm
L1210 leukemia cells = test: In vitro antitumor activity to L1210 leukemia cells (MTT); format: cell-based; conditions: for IC50: Mus musculus
Description: The cells were cultured in an incubator at 37° C., 5% CO2 and saturated humidity for 48 h. Then 5 mg/mL MTT (20 μL/well) was added and cultured at the same conditions for 4 h, DMSO (150 μL/well) was added, and the (570/630 nm) absorbance (A values) was measured by using micro-plate reader.

B16F0 melanoma = conditions: orally 200 mg/kg, twice per day; cited from earlier work
MCF-7 breast cancer = conditions: 100 mg/kg, mice, hollow fiber system; cited from earlier work
macrophages = conditions: read-out: IC50, inhibition of cell division (C5α induced, macrophages); cited from earlier work
HT-29 human colon cancer = conditions: orally 200 mg/kg, twice per day; cited from earlier work

Compound | inhibition of the secretion of pyocyanin [1] | inhibition of the production/activity of extracellular protease [4] | inhibition of the growth of Pseudomonas aeruginosa (growth curve, A600) (Pseudomonas aeruginosa [5]) | Inhibition zone diameter, Staphylococcus aureus MRSA 5676 [6] | Inhibition zone diameter, E. coli (E. coli) | Inhibition zone diameter, Pseudomonas aeruginosa (Pseudomonas aeruginosa [7]) | Inhibition zone diameter, Bacillus Subtilis (Bacillus subtilis) | Inhibition zone diameter, Candida albicans (Candida albicans) | Inhibition zone diameter, Staphylococcus aureus Wild type [8] | Inhibition zone diameter, Staphylococcus aureus MRSA 5677 [9] | further results
C=C1CCC2[C@](C)(CO)[C@H](O)CC[C@@]2(C)[C@@H]1C/C=C1/C(=O)OCC1OC(=O)CCCCC1CCSS1 (stereo partly drawn) [AL-1, 14-lipoyl-3,19-dihydroxy-andrographolide] | AL-1>Andro>ANO | AL-1>ANO>Andro | significantly inhibited the growth of bacteria | 6.9 ± 0.80 mm | ^b (incompetence (inhibition zone diameter <4 mm)) | ^b (incompetence (inhibition zone diameter <4 mm)) | ^b (incompetence (inhibition zone diameter <4 mm)) | ^b (incompetence (inhibition zone diameter <4 mm)) | 4.9 ± 0.81 mm | 4.1 ± 0.77 mm | effect on cell cycle / apoptosis of L1210 cells (L1210 cells): arrest L1210 cells at G1 prophase; reduction of blood glucose level ([2]; AL-1 160 mg/kg, 7 days): about 66%; Blood glucose ([2]; Day 0, before treatment): 19.53 ± 1.90 mmol/L; Body weight ([2]; Day 0, before treatment): 214.33 ± 9.81 g; Total cholesterol ([2]; Day 0, before treatment): 3.39 ± 0.59 mmol/L; Total triglyceride ([2]; Day 0, before treatment): 6.28 ± 0.78 mmol/L; MIC, Wild type [3]: 1000; MIC, MRSA5677 (MRSA5677): 1000; growth morphology of Pseudomonas aeruginosa under AFM (Pseudomonas aeruginosa [10]): did not form a confertim bacterial colony; formation of early and mature BF of Pseudomonas aeruginosa under SEM [11]: able to destroy the BF of Pseudomonas aeruginosa; Survival Rate [12]: 84%; MIC, MRSA5676 (MRSA5676): 1000; cytotoxicity relative to andrographolide (L1210 leukemia cells; L1210 cells): 3 times; IC50 (L1210 leukemia cells; L1210 cells, 48 h, MTT, read-out: IC50): 8.04 ± 1.92 µM
C=C1CCC2[C@@](C)(CC[C@@H](O)[C@@]2(C)CO)C1C/C=C1/C(=O)OCC1O (stereo partly drawn) [Andro, Andrographolide] | AL-1>Andro>ANO | AL-1>ANO>Andro | weak antibacterial activity | ^b (incompetence (inhibition zone diameter <4 mm)) | ^b (incompetence (inhibition zone diameter <4 mm)) | ^b (incompetence (inhibition zone diameter <4 mm)) | ^b (incompetence (inhibition zone diameter <4 mm)) | ^b (incompetence (inhibition zone diameter <4 mm)) | ^b (incompetence (inhibition zone diameter <4 mm)) | ^b (incompetence (inhibition zone diameter <4 mm)) | inhibition of growth of melanoma (B16F0 melanoma): 39%; inhibition of growth (MCF-7 breast cancer): about 50%; IC50 (macrophages): 5.6 ± 0.7 µM; IC50 (L1210 leukemia cells; L1210, 48 h): 28.7 ± 6.19 µM; inhibition of growth of colon cancer (HT-29 human colon cancer): 52%
